Reference: US12396961B2, “Compounds and compositions for intracellular delivery of agents” (ModernaTX, Inc., priority 2015, dated 2025)

What was measured:
[1] = test system: luciferase (Luc) mRNA expression; experiment: Luc expression (AUC) in CD-1 mice relative to MC3; assay type: in vivo; conditions: for Lipid/MC3 Luc CD-1 (mice): Luc expression relative to MC3, CD-1 mice; for Liver/Spleen Ratio / Lipid/MC3 AUC: Table 7c; for Lipid/MC3 AUC: AUC relative to MC3
Protocol: FIG. 15 is a graph summarizing luciferase expression levels at 6 h after administration of nanoparticle compositions containing compounds of the disclosure to CD-1 mice at a dose of 0.5 mpk. Total light flux values were acquired via body luminescent imaging (BLI) 6 h after administration. In this Figure, the numbers 1-7 and 10 refer to the compositions containing Compounds 4-10 and MC3 respectively.
In contrast, hEPO expression in rats induced by administration of nanoparticle composition including compound according to one of formulae (I), (Ia1)-(Ia6), (Ib), (II), (IIa), (III), and (IIIa) was substantially lower than that measured for MC3. […] Table 7c and 7d show additional protein expressions and clearance data from compositions with various compounds disclosed herein as compared to with MC3.

[2] = Particle size and polydispersity index (Zetasizer Nano ZS); assay type: physicochemical
Text: Nanoparticle compositions may be characterized by a variety of methods. For example, microscopy (e.g., transmission electron microscopy or scanning electron microscopy) may be used to examine the morphology and size distribution of a nanoparticle composition. Dynamic light scattering or potentiometry (e.g., potentiometric titrations) may be used to measure zeta potentials. Dynamic light scattering may also be utilized to determine particle sizes. Instruments such as the Zetasizer Nano ZS (Malvern Instruments Ltd, Malvern, Worcestershire, UK) may also be used to measure multiple characteristics of a nanoparticle composition, such as particle size, polydispersity index, and zeta potential.
A Zetasizer Nano ZS (Malvern Instruments Ltd, Malvern, Worcestershire, UK) can be used to determine the particle size, the polydispersity index (PDI) and the zeta potential of the nanoparticle compositions in 1×PBS in determining particle size and 15 mM PBS in determining zeta potential.

[3] = Table 1, DOPE 40:20:38.5:1.5, Luc mRNA

Row | Structure (SMILES) | Lipid/MC3 Luc CD-1 (mice) [1] | PDI [2, 3] | also measured
1 | CCCCCCCCCN(CCCCCCCC(=O)OC)CCN(CCCCCCCCC)CC(=O)N1CCN(C(=O)CN(CCCCCCCCC)CCCCCCCCC)CC1 [Compound 46, Methyl 8-((2-((2-(4-(dinonylglycyl)piperazin-1-yl)-2-oxoethyl)(nonyl)amino)ethyl)(nonyl)amino)octanoate] | 0.46 | 0.160 | 
2 | CCCCCCCCCN(CCCCCC(=O)OCCC)CCC1CCN(C(=O)CN(CCCCCCCCC)CCN(CCCCCCCCC)CCCCCCCCC)CC1 [Compound 59, Propyl 6-((2-(1-(N-(2-(dinonylamino)ethyl)-N-nonylglycyl)piperidin-4-yl)ethyl)(nonyl)amino)hexanoate] |  |  | Liver/Spleen Ratio [1]: 5; Lipid/MC3 AUC [1]: 0.84
3 | CCCCCCCCCN(CCCCCCCCC)CCN(CCCCCCCC(=O)OC)CC(=O)N1CCN(C(=O)CN(CCCCCCCCC)CCCCCCCCC)CC1 [Compound 47, Methyl 8-((2-(dinonylamino)ethyl)(2-(4-(dinonylglycyl)piperazin-1-yl)-2-oxoethyl)amino)octanoate] | 0.22 | 0.180 | 
4 | CCCCCCCCCCCCN(CCCCCCCCCCCC)CCN(CCCCCCCCCCCC)CC(=O)N1CC2CC1CN2C(=O)CN(CCCCCCCCC)CCCCCCCCC (centres unmarked) [Compound 43, 2-((2-(Didodecylamino)ethyl)(dodecyl)amino)-1-(5-(dinonylglycyl)-2,5-diazabicyclo[2.2.1]heptan-2-yl)ethan-1-one] | 0.34 | 0.220 | Size (nm) ([2]; Table 1, lipid:DOPE:Chol:PEG-DMG 40:20:38.5:1.5, Luc mRNA, MC3 standard formulation): 99.0 nm
5 | CCCCCCCCCCCCCCN(CCCCCCCCCCCCCC)CC(=O)N1CCN(C(=O)CN(CCCCCCCCC)CCN(CCCCCCCCC)CCCCCCCCC)CC1 [Compound 51, 2-((2-(Dinonylamino)ethyl)(nonyl)amino)-1-(4-(ditetradecylglycyl)piperazin-1-yl)ethan-1-one] | 5.22 | 0.190 | 
6 | CCCCCCCCCN(CCCCCCCCC)CCN(CCCCCCCCC)CC(=O)N1CC2CC1CN2C(=O)CN(CCCCCCCCC)CCCCCCCCC (centres unmarked) [Compound 42, 2-(Dinonylamino)-1-(5-(N-(2-(dinonylamino)ethyl)-N-nonylglycyl)-2,5-diazabicyclo[2.2.1]heptan-2-yl)ethan-1-one] | 3.99 | 0.190 | 
7 | CCCCCCCCCN(CCCCCCCCC)CCN(CCCCCCCCC)CCC1CCN(C(=O)CN(CCCCCCCCC)CCCCCCCCC)CC1 [Compound 50, 2-(Dinonylamino)-1-(4-(2-((2-(dinonylamino)ethyl)(nonyl)amino)ethyl)piperidin-1-yl)ethan-1-one] | 0.01 | 0.190 | 
8 | CCCCCCCCCN(CCCCCCCCC)CCN(CCCCCCCCC)CC(=O)N1CCN(C(=O)CN(CCCCCCCCC)CCCCCC(=O)OCCC)CC1 [Compound 54, Propyl 6-((2-(4-(N-(2-(dinonylamino)ethyl)-N-nonylglycyl)piperazin-1-yl)-2-oxoethyl)(nonyl)amino)hexanoate] |  |  | Liver/Spleen Ratio [1]: 32; Lipid/MC3 AUC [1]: 0.13
9 | CCCCCCCCCN(CCCC(=O)OCCCCC)CCN(CCCCCCCCC)CC(=O)N1CCN(C(=O)CN(CCCCCCCCC)CCCC(=O)OCCCCC)CC1 [Compound 71, Pentyl 4-(nonyl(2-(4-(N-nonyl-N-(2-(nonyl(4-oxo-4-(pentyloxy)butyl)amino)ethyl)glycyl)piperazin-1-yl)-2-oxoethyl)amino)butanoate] |  |  | Liver/Spleen Ratio [1]: 25; Lipid/MC3 AUC [1]: 1.25
10 | CCCCCCCCCN(CCCCCCCCC)CCC(=O)N1CCN(C(=O)CCN(CCCCCCCCC)CCN(CCCCCCCCC)CCCCCCCCC)CC1 [Compound 52, 3-(Dinonylamino)-1-(4-(3-((2-(dinonylamino)ethyl)(nonyl)amino)propanoyl)piperazin-1-yl)propan-1-one] | 7.46 | 0.100 | 
11 | CCCCCCCCCN(CCCCCCCC(=O)OC)CCN(CCCCCCCC(=O)OC)CC(=O)N1CCN(C(=O)CN(CCCCCCCCC)CCCCCCCCC)CC1 [Compound 48, Methyl 8-((2-(4-(dinonylglycyl)piperazin-1-yl)-2-oxoethyl)(2-((8-methoxy-8-oxooctyl)(nonyl)amino)ethyl)amino)octanoate] | 0.01 | 0.099 | 
12 | CCCCCCCCCN(CCCCC(=O)OCCCC)CCC1CCN(C(=O)CN(CCCCCCCCC)CCN(CCCCCCCCC)CCCCCCCCC)CC1 [Compound 60, Butyl 5-((2-(1-(N-(2-(dinonylamino)ethyl)-N-nonylglycyl)piperidin-4-yl)ethyl)(nonyl)amino)pentanoate] |  |  | Liver/Spleen Ratio [1]: 15; Lipid/MC3 AUC [1]: 2.00
13 | CCCCCCCCCN(CCCCCCCCC)CCN(CCCCCCCCC)CC(=O)N1CCN(C(=O)CN(CCCCCCCCC)CCCCCCCC(=O)OC)CC1 [Compound 44, Methyl 8-((2-(4-(N-(2-(dinonylamino)ethyl)-N-nonylglycyl)piperazin-1-yl)-2-oxoethyl)(nonyl)amino)octanoate] | 0.82 | 0.190 | 
14 | CCCCC/C=C\C/C=C\CCCCCCCCN(CCCCCCCC/C=C\C/C=C\CCCCC)CCN1CCN(CCN(CCCCCCCCCCCC)CCN(CCCCCCCCCCCC)CCCCCCCCCCCC)CC1 [Compound 29, N^1-(2-(4-(2-(Di((9Z,12Z)-octadeca-9,12-dien-1-yl)amino)ethyl)piperazin-1-yl)ethyl)-N^1,N^2,N^2-tridodecylethane-1,2-diamine] |  | 0.060 | 
15 | CCCCCCCCCCCCN(CCCCCCCCCCCC)CCN(CCCCCCCCCCCC)CCN1CCN(C(=O)CN(CCCCCCCCCCCC)CCCCCCCCCCCC)CC1 [Compound 3, 2-(Didodecylamino)-1-(4-(2-((2-(didodecylamino)ethyl)(dodecyl)amino)ethyl)piperazin-1-yl)ethan-1-one] |  | 0.044 | 
16 | CCCCC/C=C\C/C=C\CCCCCCCCN(CCCCCCCC/C=C\C/C=C\CCCCC)CCN(CCO)CCCCCCCCCCCC [Compound 20-13, 2-((2-(Di((9Z,12Z)-octadeca-9,12-dien-1-yl)amino)ethyl)(dodecyl)amino)ethan-1-ol] |  |  | PDI ([2]; Table 20-1): 0.057
17 | CCCCCCCCCCCCN(CCO)CCN(CCCCCCCCC)CCCCCCCCC [Compound 20-18, 2-((2-(Dinonylamino)ethyl)(dodecyl)amino)ethan-1-ol] |  |  | PDI ([2]; Table 20-1): 0.150
18 | CCCCCCCCCN(CCCCCCCCC)CCN(CCO)CCCCCC(=O)OCCCCC [Compound 20-6, Pentyl 6-((2-(dinonylamino)ethyl)(2-hydroxyethyl)amino)hexanoate] |  |  | PDI ([2]; Table 20-1): 0.220
